From PMC11905624 (BMC Biology, 2025)
Peptide text beside a SMILES is read from it.

T1: B2 receptor (Homo sapiens, UniProt P30411)
T1 construct: endogenous in cells; host or cells: HaCaT
T1 sequence (P30411 1-391): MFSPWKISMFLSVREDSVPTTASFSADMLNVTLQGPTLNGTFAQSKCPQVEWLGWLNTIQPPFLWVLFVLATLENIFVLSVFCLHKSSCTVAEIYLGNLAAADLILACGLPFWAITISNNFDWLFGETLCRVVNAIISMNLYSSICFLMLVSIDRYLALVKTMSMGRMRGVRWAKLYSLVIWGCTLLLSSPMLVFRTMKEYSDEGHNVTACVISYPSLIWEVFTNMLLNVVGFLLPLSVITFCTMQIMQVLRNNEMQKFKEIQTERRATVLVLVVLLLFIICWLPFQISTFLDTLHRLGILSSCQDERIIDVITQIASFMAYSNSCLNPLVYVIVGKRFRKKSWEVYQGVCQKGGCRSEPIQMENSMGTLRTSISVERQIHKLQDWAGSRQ

B1: carbamylated HMWK: carbamylated high molecular weight kininogen (protein, UniProt P01042 19-644, looked up)
Kininogen-1: QESQSEEIDCNDKDLFKAVDAALKKYNSQNQSNNQFVLYRITEATKTVGSDTFYSFKYEIKEGDCPVQSGKTWQDCEYKDAAKAATGECTATVGKRSSTKFSVATQTCQITPAEGPVVTAQYDCLGCVHPISTQSPDLEPILRHGIQYFNNNTQHSSLFMLNEVKRAQRQVVAGLNFRITYSIVQTNCSKENFLFLTPDCKSLWNGDTGECTDNAYIDIQLRIASFSQNCDIYPGKDFVQPPTKICVGCPRDIPTNSPELEETLTHTITKLNAENNATFYFKIDNVKKARVQVVAGKKYFIDFVARETTCSKESNEELTESCETKKLGQSLDCNAEVYVVPWEKKIYPTVNCQPLGMISLMKRPPGFSPFRSSRIGEIKEETTVSPPHTSMAPAQDEERDSGKEQGHTRRHDWGHEKQRKHNLGHGHKHERDQGHGHQRGHGLGHGHEQQHGLGHGHKFKLDDDLEHQGGHVLDHGHKHKHGHGHGKHKNKGKKNGKHNGWKTEHLASSSEDSTTPSAQTQEKTEGPTPIPSLAKPGVTVTFSDFQDSDLIATMMPPISPAPIQSDDDWIPDIQIDPNGLSFNPISDFPDTTSPKCPGRPWKSVSEINPTTQMKESYYFDLTDGLS
modifications: High molecular weight kininogen carbamylated

Key:
B2 receptor = molecular target: T1, B2 receptor; experiment: Intracellular calcium flux in HaCaT cells; format: cell-based
Procedure: HaCaT cells were seeded onto 96-well plates and, upon reaching full confluence, were starved for 3 h (medium without FBS). […] After 1.5 h in 37 °C, fluorescence intensity (485/525 nm) was recorded continuously for 5 min using FlexStation 3 (Molecular Devices). […] FBS (3%) served as positive control. Results were calculated as area under the curves of RFU fold change from the signal recorded at baseline and adjusted to % of maximum response (FBS) curve. Non-linear regression analyses were performed to generate dose–response curves and calculate EC50 values.

pKLK = molecular target: T2, pKLK (Homo sapiens, UniProt P03952); experiment: BK release from HMWK by pKLK, HPLC; format: biochemical; conditions: 5 µg HMWK, 500 nM pKLK, 24 h, 50 mM Tris-HCl pH 7.5, 37 °C
T2 construct: purchased Merck
Procedure: Ten µg of BK or cBK (ProImmune) were incubated with 15 ng of CPM (RnD; 1 h in 50 mM MES buffer pH 6.0 containing 5 mM CaCl2, 0.2% Triton-X100), 20 ng of NEP (RnD; 2 h in 50 mM HEPES buffer pH 7.4 containing 150 mM NaCl, 0,01% Triton-X100) or 40 ng of ACE1 (Merck; 4 h in 20 mM HEPES buffer containing 100 µM ZnCl2, 300 mM KCl) in final volume of 11 µl in 37 °C. Substrate controls were incubated in parallel without enzymes. Five µg of HMWK (Merck) were incubated with 500 nM of pKLK (Merck; 24 h in 50 mM Tris–HCl buffer pH 7.5 containing 100 mM NaCl, 0.01% Triton-X100) in final volume of 35 µl in 37 °C. Reactions were stopped with addition of TFA, TCA, EDTA and inhibitors for ACE1 (1 µM lisinopril), NEP (4 mM thiorphan), pKLK (1 mM AEBSF), and analysed via HPLC.
Absorbance chromatograms (215 nm) were evaluated with the LabSolutions software.

T2 sequence (P03952 20-638): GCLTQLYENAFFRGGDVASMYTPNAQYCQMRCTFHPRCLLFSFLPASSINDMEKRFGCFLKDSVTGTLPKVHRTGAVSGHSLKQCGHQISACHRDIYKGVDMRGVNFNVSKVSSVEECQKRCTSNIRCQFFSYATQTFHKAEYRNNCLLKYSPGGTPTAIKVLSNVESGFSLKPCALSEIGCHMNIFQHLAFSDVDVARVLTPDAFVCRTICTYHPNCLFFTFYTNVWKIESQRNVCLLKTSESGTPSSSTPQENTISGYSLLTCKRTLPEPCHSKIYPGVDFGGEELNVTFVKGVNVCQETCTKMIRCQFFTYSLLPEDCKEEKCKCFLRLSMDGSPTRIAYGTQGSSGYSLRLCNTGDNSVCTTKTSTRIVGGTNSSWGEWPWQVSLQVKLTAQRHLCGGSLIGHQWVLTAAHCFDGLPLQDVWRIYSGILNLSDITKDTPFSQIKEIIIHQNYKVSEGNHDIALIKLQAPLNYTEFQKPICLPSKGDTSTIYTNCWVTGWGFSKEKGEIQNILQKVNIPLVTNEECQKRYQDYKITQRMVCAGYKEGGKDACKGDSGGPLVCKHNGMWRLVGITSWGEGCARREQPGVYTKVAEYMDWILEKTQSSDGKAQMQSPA

Row | Molecule | B2-stimulatory potential lower than the response elicited by native BK (B2 receptor; 100 nM peptide, calcium sensitive dye) | EC50 (B2 receptor; Calcium Dye 5, AUC of RFU fold change as % of maximum response (FBS), n = 6, mean ± SEM) | pKLK-driven generation of BK (pKLK)
1 | N=C(N)NCCC[C@H](NC(=O)[C@H](Cc1ccccc1)NC(=O)[C@@H]1CCCN1C(=O)[C@H](CO)NC(=O)[C@H](Cc1ccccc1)NC(=O)CNC(=O)[C@@H]1CCCN1C(=O)[C@@H]1CCCN1C(=O)[C@H](CCCNC(=N)N)NC(N)=O)C(=O)O [cBK] (HELM PEPTIDE1{[N=C(N)NCCC[C@H](NC(N)=O)C(=O)[*:2]].P.P.G.F.S.P.F.R}$$$$V2.0) | over 25% | 26.55 ± 0.0011 nM | 
2 | B1 |  |  | abolishes
